This note sets out measurements from ChEMBL document CHEMBL1144325, “Synthesis and monoamine transporter affinity of new 2beta-carbomethoxy-3beta-[4-(substituted thiophenyl)]phenyltropanes: discovery of a selective SERT antagonist with picomolar potency” (Bioorg Med Chem Lett, 2005).

Test [1] deals with Norepinephrine transporter (Rattus norvegicus, UniProt Q9WTR4). Nature of the test: Displacement of [3H]nisoxetine from norepinephrine transporter of rat cerebral cortex. It counts as tissue-based. (Displacement assays read how much labelled ligand stays bound in the presence of the test substance.)
In test [2] the target is Monoamine transporters; Norepinephrine & serotonin (Rattus norvegicus) (UniProt P31652+Q9WTR4). Kind of test: Selectivity for inhibition of serotonin and norepinephrine transporters. It counts as protein assay.
Test [3] addresses Sodium-dependent serotonin transporter (Rattus norvegicus, UniProt P31652). Kind of test: Displacement of [3H]paroxetine from serotonin transporter of rat cerebral cortex. It counts as tissue-based.
Test [4] addresses Monoamine transporters; serotonin & dopamine (Rattus norvegicus) (UniProt P31652+P23977). Nature of the test: Selectivity for inhibition of serotonin and dopamine transporters. Type of test: protein assay.
For test [5], the target named is Sodium-dependent dopamine transporter (Rattus norvegicus, UniProt P23977). Nature of the test: Displacement of [3H]GBR-12935 from dopamine transporter of rat caudate-putamen. Type of test: tissue-based.

Bounds are passed on as bounds.

Sequence of Norepinephrine transporter (Q9WTR4 whole entry): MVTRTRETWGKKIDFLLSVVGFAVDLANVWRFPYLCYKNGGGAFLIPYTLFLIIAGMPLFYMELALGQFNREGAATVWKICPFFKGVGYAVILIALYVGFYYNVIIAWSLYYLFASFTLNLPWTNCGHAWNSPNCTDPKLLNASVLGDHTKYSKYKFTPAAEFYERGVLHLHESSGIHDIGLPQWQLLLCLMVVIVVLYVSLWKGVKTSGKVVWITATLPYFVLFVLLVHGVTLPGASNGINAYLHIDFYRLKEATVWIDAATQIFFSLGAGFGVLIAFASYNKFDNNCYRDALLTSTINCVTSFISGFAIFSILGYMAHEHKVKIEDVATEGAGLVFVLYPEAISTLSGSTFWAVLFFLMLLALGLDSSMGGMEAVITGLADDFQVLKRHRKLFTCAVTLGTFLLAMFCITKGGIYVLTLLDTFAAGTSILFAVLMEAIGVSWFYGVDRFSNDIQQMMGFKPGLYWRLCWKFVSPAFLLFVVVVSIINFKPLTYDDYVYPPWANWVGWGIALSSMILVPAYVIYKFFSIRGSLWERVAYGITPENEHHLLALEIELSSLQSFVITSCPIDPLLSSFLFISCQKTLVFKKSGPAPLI
Sequence of Sodium-dependent serotonin transporter (P31652 whole entry): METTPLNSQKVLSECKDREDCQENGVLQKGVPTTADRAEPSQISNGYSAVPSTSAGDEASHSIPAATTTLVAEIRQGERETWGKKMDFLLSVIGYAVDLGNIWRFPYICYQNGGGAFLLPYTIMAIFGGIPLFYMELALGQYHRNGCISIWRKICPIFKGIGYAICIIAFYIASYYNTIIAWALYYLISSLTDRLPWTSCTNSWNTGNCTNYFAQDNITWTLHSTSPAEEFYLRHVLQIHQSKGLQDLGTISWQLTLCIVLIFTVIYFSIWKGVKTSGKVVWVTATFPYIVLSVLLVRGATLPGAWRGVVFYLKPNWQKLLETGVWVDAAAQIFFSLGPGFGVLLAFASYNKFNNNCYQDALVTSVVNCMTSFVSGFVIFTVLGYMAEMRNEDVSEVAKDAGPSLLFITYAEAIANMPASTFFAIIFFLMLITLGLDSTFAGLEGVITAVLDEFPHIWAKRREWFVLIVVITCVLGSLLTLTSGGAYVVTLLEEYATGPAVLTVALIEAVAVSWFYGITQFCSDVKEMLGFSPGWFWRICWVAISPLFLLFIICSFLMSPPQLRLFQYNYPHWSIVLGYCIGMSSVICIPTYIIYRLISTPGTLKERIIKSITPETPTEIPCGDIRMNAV
Sequence of Sodium-dependent dopamine transporter (P23977 whole entry): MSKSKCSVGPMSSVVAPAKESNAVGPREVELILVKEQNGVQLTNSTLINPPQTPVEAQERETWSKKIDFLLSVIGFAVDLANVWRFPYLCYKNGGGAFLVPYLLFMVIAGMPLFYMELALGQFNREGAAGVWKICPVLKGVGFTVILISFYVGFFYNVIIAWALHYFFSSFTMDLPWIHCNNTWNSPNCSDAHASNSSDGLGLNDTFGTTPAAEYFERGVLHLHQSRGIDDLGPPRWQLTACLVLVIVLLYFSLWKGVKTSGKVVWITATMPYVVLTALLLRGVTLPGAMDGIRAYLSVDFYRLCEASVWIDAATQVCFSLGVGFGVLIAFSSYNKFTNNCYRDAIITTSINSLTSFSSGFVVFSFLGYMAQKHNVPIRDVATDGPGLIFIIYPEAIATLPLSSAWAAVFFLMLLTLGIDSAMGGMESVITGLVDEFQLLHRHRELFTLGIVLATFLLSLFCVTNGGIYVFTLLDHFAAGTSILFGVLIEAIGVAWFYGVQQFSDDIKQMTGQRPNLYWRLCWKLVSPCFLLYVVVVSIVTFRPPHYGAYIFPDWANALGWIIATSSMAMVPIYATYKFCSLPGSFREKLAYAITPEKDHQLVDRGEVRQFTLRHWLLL
Sequence of Monoamine transporters; serotonin & dopamine (Rattus norvegicus) (P23977 whole entry, looked up): as the sequence (P23977 whole entry) above
Sequence of Monoamine transporters; serotonin & dopamine (Rattus norvegicus) (P31652 whole entry, looked up): as the sequence (P31652 whole entry) above

For the molecule `COC(=O)C1C(c2ccc(-c3ccsc3)cc2)CC2CCC1N2C` (configuration not stated), the values for the inhibition constant (Ki) in test [1], in test [3] and in test [5] were 189 nM, 0.017 nM and 12.1 nM, respectively. Further, the Ratio in test [2] came out at 11100; in test [4], 710.

With `COC(=O)C1C2CCC(CC1c1ccc(-c3ccsc3)cc1)N2` (configuration not stated), the results for the Ki in test [1], in test [3] and in test [5] were 39 nM, 0.23 nM and 6.4 nM, respectively. In addition, the figures for the Ratio in test [2] and in test [4] were 170 and 28, respectively.

On to `COC(=O)C1C(c2ccc(-c3cc([N+](=O)[O-])c([N+](=O)[O-])s3)cc2)CC2CCC1N2C` (configuration not stated), for which the inhibitory constant (Ki) was greater than 10000 nM in test [1], 5000 nM in test [3] and greater than 30000 nM in test [5]. Further, the values for the Ratio in test [2] and in test [4] were greater than 2 and greater than 6, respectively.

`COC(=O)C1C(c2ccc(I)cc2)CC2CCC1N2C` (configuration not stated): the results for the Ratio in test [2] and in test [4] were 6.1 and 2.1, respectively.

With `COC(=O)C1C(c2ccc(-c3cscc3Br)cc2)CC2CCC1N2C` (configuration not stated), the inhibition constant Ki in test [1] was greater than 10000 nM; in test [3], 4.02 nM; in test [5], 183 nM. Also, the Ratio was greater than 2490 in test [2] and 46 in test [4].

For `COC(=O)C1C(c2ccc(-c3ccc(Cl)s3)cc2)CC2CCC1N2C` (configuration not stated), the figures for the inhibitory constant (Ki) in test [1], in test [3] and in test [5] were 311 nM, 0.64 nM and 4.42 nM, respectively. Also, the Ratio in test [2] is 486; in test [4], 6.9.

Consider `COC(=O)C1C(c2ccc(-c3ccc(Br)s3)cc2)CC2CCC1N2C` (configuration not stated), for which the inhibitory constant (Ki) in test [1] came out at 324 nM; in test [3] it was 0.38 nM; in test [5] it was 6.43 nM. In addition, the Ratio in test [2] is 853; in test [4], 17.

`COC(=O)C1C2CCC(CC1c1ccc(-c3cccs3)cc1)N2` (configuration not stated): the Ki in test [1] was 75.3 nM; in test [3], 0.11 nM; in test [5], 12.2 nM. Besides, the results for the Ratio in test [2] and in test [4] were 685 and 111, respectively.

Consider `COC(=O)C1C(c2ccc(-c3ccc(I)s3)cc2)CC2CCC1N2C` (configuration not stated), for which the results for the inhibition constant (Ki) in test [1], in test [3] and in test [5] were 1140 nM, 4.56 nM and 22.1 nM, respectively. In addition, the Ratio in test [2] is 249; in test [4] it was 4.9.

For `COC(=O)C1C(c2ccc(-c3ccc(N)s3)cc2)CC2CCC1N2C` (configuration not stated), the inhibition constant (Ki) was greater than 30000 nM in test [1], 64.7 nM in test [3] and greater than 10000 nM in test [5]. In addition, the Ratio was greater than 464 in test [2] and greater than 155 in test [4].

With `COC(=O)C1C(c2ccc(-c3cccs3)cc2)CC2CCC1N2C` (configuration not stated), the Ki in test [1] came to 158 nM; in test [3] it was 0.15 nM; in test [5], 52 nM. In addition, the Ratio amounted to 1050 in test [2] and 346 in test [4].

One may read the Ki as a measure of affinity in units of concentration, obtained from inhibition or displacement. A high value points to weaker binding.
